Target: T1, SyHR (Synechocystis sp. PCC 7509, UniProt A0A9X9ZA75)
T1 sequence (A0A9X9ZA75 1-234): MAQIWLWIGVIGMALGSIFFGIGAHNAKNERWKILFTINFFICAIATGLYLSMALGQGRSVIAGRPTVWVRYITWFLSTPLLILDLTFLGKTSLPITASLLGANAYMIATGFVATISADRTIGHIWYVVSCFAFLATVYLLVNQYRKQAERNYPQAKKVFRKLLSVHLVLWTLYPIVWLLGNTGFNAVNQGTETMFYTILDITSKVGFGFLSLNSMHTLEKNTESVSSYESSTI
Experiment: absorption spectral shift titration, Hill fit
Assay type: binding

Cl [a, Cl^−]
Kd: 280 ± 50 µM

Br [b, Br^−]
Kd: 110 ± 20 µM

O=[N+]([O-])O [c, NO3^−]
Kd: 6150 ± 750 µM

I [d, I^−]
Kd: 210 ± 30 µM

— article doi:10.1101/2025.07.01.658226v1 (biorxiv, 2025)
